What all share (assay type): cell-based, human
In assay [1] the test system is EFNB2-tdTomato/EPHB4-EGFP dual reporter cells (H1 ES cells). Description: Arterial endothelial differentiation of EFNB2-tdTomato/EPHB4-EGFP dual reporter cells, flow cytometry. To be noted: for arterial endothelial cell differentiation (EFNB2-tdTomato high/EPHB4-EGFP low cells), factor added: added day 2 to day 6 to E5 + 50 ng/ml VEGFA + 10 μM SB431542, 5 μM L690, 5 μg/ml LDL, 100 ng/ml PDGF-BB, FIGS. 3E-3F; for EFNB2-tdTomato high/EPHB4-EGFP low cells, factor removed from five factors medium: individual removal, FIGS. 4A-4B; for arterial endothelial differentiation of human pluripotent stem cells (conclusion after FACS sorting and RT-qPCR): summary statement; for arterial specification (EFNB2-tdTomato and EPHB4-EGFP expression), factor added singly: added to Control medium (E5+100 ng/ml FGF2+10 μM SB431542): 50 ng/ml VEGF, 5 μM RESV or 50 ng/ml WNT3A, FIG. 11; for arterial differentiation (EFNB2-tdTomato high/EPHB4-EGFP low cells), factor removed: factor removed from the medium after mesoderm formation, day 2 to day 6, FIGS. 3A-3F; for EFNB2-tdTomato high/EPHB4-EGFP low cells / arterial differentiation, factor added to five factors medium: 100 ng/ml PDGF-BB or exogenous WNT3A, FIGS. 4A-4F, FIG. 9. As to the method: (A) Flow cytometric analysis of EFNB2-tdTomato and EPHB4-EGFP expression on CD31 and CD144 gated endothelial cells. EFNB2-tdTomato/EPHB4-EGFP dual reporter cells (hetero knock-in in H1 cells for each gene) were first differentiated into mesoderm cells by E8BAC medium (E8 medium supplemented with BMP4, Activin-A, and CHIR99021). E5 (E8 medium minus FGF2, TGFβ1, and insulin) medium supplemented with 100 ng/ml FGF2, 50 ng/ml VEGFA, and 50 ng/ml BMP4 was used to induce mesoderm cells to differentiate into endothelial cells from day 2 to day 6. Either Insulin (20 μg/ml) or Ly294002 (16 μM, a PI3K inhibitor) was added to the medium as indicated from day 2 to day 6. (B) Statistics of EFNB2-tdTommato^high/EPHB4-EGFP^low cells. […] (C) Western blots showing AKT activity. Protein was harvested at day 3. (D) Flow cytometric analysis of EFNB2-tdTomato and EPHB4-EGFP expression on CD31 and CD144 gated endothelial cells. E5 medium supplemented with 50 ng/ml VEGFA, 50 ng/ml BMP4 or 10 μM SB431542 was used to induce mesoderm cells to differentiate into endothelial cells from day 2 to day 6. (E) Flow cytometric analysis of EFNB2-tdTomato and EPHB4-EGFP expression on CD31 and CD144 gated endothelial cells. ES cells were first differentiated into mesoderm cells as mentioned above. E5 medium supplemented with 50 ng/ml VEGFA and 10 μM SB431542 was used as the base medium induce mesoderm cells to differentiate into endothelial cells from day 2 to day 6. Other factors were added to the base medium as indicated. (F) Statistics of EFNB2-tdTomato^high/EPHB4-EGFP^low cells. […] FIGS. 4A-4H present flow cytometric analysis of expression of EphrinB2 and Ephrin Type B Receptor 4 reporter constructs (EFNB2-tdTomato and EPHB4-EGFP) on CD31- and CD144-gated endothelial cells obtained after differentiation in various medium, as described. FIG. 4B illustrates the percentage of arterial endothelial cells (AEC) (EFNB2-tdTomato^high/EPHB4-EGFP^low) obtained after differentiation in the various medium conditions of FIG. 4A. Data are represented as mean±SD. […] FIG. 4D illustrates the percentage of CXCR4^+CD144^+ arterial endothelial cells obtained after differentiation in the various medium conditions of FIG. 4C. […] FIG. 4F illustrates the percentage of DLL4^+CD144^+ arterial endothelial cells obtained after differentiation in the various medium conditions of FIG. 4E. 5 μM L-690,330 (a bisphosphonate inhibitor of inositol monophosphatase), and 100 ng/ml PDGF-BB (platelet derived growth factor BB) were used. […] FIGS. 11A-11C present arterial endothelial cell differentiation data. (A) Schematic of arterial endothelial cell differentiation protocol. ES cells were first differentiated into mesoderm cells by E8BAC medium (E8 medium supplemented with 5 ng/ml BMP4, 25 ng/ml Activin A, and 1 μM CHIR99021). E5 (E8 medium minus FGF2, TGFβ1, and insulin) medium supplemented with 100 ng/ml FGF2 and 10 μM SB431542 was then used to induce mesoderm cells to differentiate into endothelial cells. (B) Flow cytometric analysis of CD31 and CD34 expression. E5+100 ng/ml FGF2+10 μM SB431542 medium (“Control”) supplemented with 50 ng/ml VEGF, 5 μM RESV (resveratrol, a Notch activator), or 50 ng/ml WNT3A was used to induce mesoderm cells to differentiate into arterial endothelial cells. (C) Flow cytometric analysis of EFNB2-tdTomato and EPHB4-EGFP expression.
In general terms: A flow cytometer gives signals particle by particle.

For assay [2], the system named is CXCR4+CD144+ and DLL4+CD144+ arterial endothelial cells. Description: Flow cytometry of CXCR4/CD144 and DLL4/CD144 on differentiated endothelial cells. Conditions: FIGS. 4C-4F; for CXCR4 and DLL4 (CD144+CXCR4+ and CD144+DLL4+ cells), factor removed from five factors medium: individual removal. From the text:
FIGS. 4A-4H present flow cytometric analysis of expression of EphrinB2 and Ephrin Type B Receptor 4 reporter constructs (EFNB2-tdTomato and EPHB4-EGFP) on CD31- and CD144-gated endothelial cells obtained after differentiation in various medium, as described. FIG. 4B illustrates the percentage of arterial endothelial cells (AEC) (EFNB2-tdTomato^high/EPHB4-EGFP^low) obtained after differentiation in the various medium conditions of FIG. 4A. Data are represented as mean±SD. […] FIG. 4D illustrates the percentage of CXCR4^+CD144^+ arterial endothelial cells obtained after differentiation in the various medium conditions of FIG. 4C. […] FIG. 4F illustrates the percentage of DLL4^+CD144^+ arterial endothelial cells obtained after differentiation in the various medium conditions of FIG. 4E. 5 μM L-690,330 (a bisphosphonate inhibitor of inositol monophosphatase), and 100 ng/ml PDGF-BB (platelet derived growth factor BB) were used. […] Arterial endothelial cell differentiation and expansion: It took six days for AECs differentiation. From day 0 to day 2, human ES/iPS cells were first differentiated into mesoderm cells as mentioned above. From day 2 to day 6, E5 medium was used and growth factors or small molecules were added as indicated. With the combination of “five factors,” AECs were induced by E5 medium supplemented with 100 ng/ml FGF, 50 ng/ml VEGF, 10 μM SB431542, 5 μM RESV, and 10 μM […] from day 2 to day 6.

For assay [3], the system named is AKT. Description: Western blot of AKT activity (pAKT) during differentiation. Conditions: protein harvested at day 3, insulin 20 μg/ml, Ly294002 16 μM, FIG. 3C. As for the experimental part:
FIGS. 3A-3F present candidate pathways critical for arteriovenous specification. (A) Flow cytometric analysis of EFNB2-tdTomato and EPHB4-EGFP expression on CD31 and CD144 gated endothelial cells. EFNB2-tdTomato/EPHB4-EGFP dual reporter cells (hetero knock-in in H1 cells for each gene) were first differentiated into mesoderm cells by E8BAC medium (E8 medium supplemented with BMP4, Activin-A, and CHIR99021). E5 (E8 medium minus FGF2, TGFβ1, and insulin) medium supplemented with 100 ng/ml FGF2, 50 ng/ml VEGFA, and 50 ng/ml BMP4 was used to induce mesoderm cells to differentiate into endothelial cells from day 2 to day 6. Either Insulin (20 μg/ml) or Ly294002 (16 μM, a PI3K inhibitor) was added to the medium as indicated from day 2 to day 6. (B) Statistics of EFNB2-tdTommato^high/EPHB4-EGFP^low cells. Data are represented as mean±SD. *: P<0.05, n=5. (C) Western blots showing AKT activity. Protein was harvested at day 3. (D) Flow cytometric analysis of EFNB2-tdTomato and EPHB4-EGFP expression on CD31 and CD144 gated endothelial cells. E5 medium supplemented with 50 ng/ml VEGFA, 50 ng/ml BMP4 or 10 μM SB431542 was used to induce mesoderm cells to differentiate into endothelial cells from day 2 to day 6. (E) Flow cytometric analysis of EFNB2-tdTomato and EPHB4-EGFP expression on CD31 and CD144 gated endothelial cells. ES cells were first differentiated into mesoderm cells as mentioned above. […]

Experimental findings from patent publication US11674123B2, “Generating arterial endothelial cell populations” (Wisconsin Alumni Research Foundation, priority 2015, dated 2023) are described below.

“Also recorded” adds a separate entry of the source.

For the molecule `CC(Oc1ccc(O)cc1)(P(=O)(O)O)P(=O)(O)O` [L-690,330, reference compound], in assay [1], the “arterial endothelial cell differentiation (EFNB2-tdTomato high/EPHB4-EGFP low cells), factor added” value is “increased arterial endothelial cell differentiation”; the “EFNB2-tdTomato high/EPHB4-EGFP low cells, factor removed from five factors medium” value is listed as “fewer”; the “arterial endothelial differentiation of human pluripotent stem cells (conclusion after FACS sorting and RT-qPCR)” value (“arterial endothelial differentiation” for short) is reported as “promote arterial endothelial differentiation”. Further, the “CXCR4 and DLL4 (CD144+CXCR4+ and CD144+DLL4+ cells), factor removed from five factors medium” value (shortened to “CXCR4 and DLL4”) in assay [2] is recorded as “no reduction”.
On to `Oc1ccc(C=Cc2cc(O)cc(O)c2)cc1` [RESV, 3,4′,5-trihydroxystilbene, reference compound], for which, in assay [1], the “arterial specification (EFNB2-tdTomato and EPHB4-EGFP expression), factor added singly” value was “promoted increased arterial specification”; the “EFNB2-tdTomato high/EPHB4-EGFP low cells, factor removed from five factors medium” value is “decrease”.
Consider `NC(=O)c1ccc(-c2nc(-c3ccc4c(c3)OCO4)c(-c3ccccn3)[nH]2)cc1` [SB431542, reference compound], for which, in assay [1], the “arterial differentiation (EFNB2-tdTomato high/EPHB4-EGFP low cells), factor removed” value is listed as “inhibited arterial differentiation” and the “EFNB2-tdTomato high/EPHB4-EGFP low cells, factor removed from five factors medium” value is “decrease”. Besides, the “CXCR4 and DLL4” value in assay [2] is reported as “decreased”.
With FGF2: human fibroblast growth factor 2, in assay [1], the “arterial endothelial cell differentiation (EFNB2-tdTomato high/EPHB4-EGFP low cells), factor added” value is recorded as “increased arterial endothelial cell differentiation”; the “EFNB2-tdTomato high/EPHB4-EGFP low cells, factor removed from five factors medium” value is given as “decrease”; the “arterial endothelial differentiation” value is listed as “promote arterial endothelial differentiation”. Further, the “CXCR4 and DLL4” value in assay [2] was “decreased”.
In the case of TGF-β, in assay [1], the “arterial endothelial differentiation” value was “inhibit arterial endothelial differentiation”.
With “insulin: insulin, medium component, activates AKT”, in assay [1], the “arterial differentiation (EFNB2-tdTomato high/EPHB4-EGFP low cells), factor removed” value is “triggered AEC differentiation”; the “arterial endothelial differentiation” value is reported as “inhibit arterial endothelial differentiation”. Further, in assay [3], the “Phosphorylated AKT (pAKT)” value is listed as “increased”.

B1: PDGF-BB: platelet derived growth factor BB (protein, UniProt P01127 82-190, looked up)
Platelet-derived growth …: SLGSLTIAEPAMIAECKTRTEVFEISRRLIDRTNANFLVWPPCVEVQRCSGCCNNRNVQCRPTQVQLRPVQVRKIEIVRKKPIFKKATVTLEDHLACKCETVAAARPVT
modifications: homodimer
Turning to B1, in assay [1], the “EFNB2-tdTomato high/EPHB4-EGFP low cells / arterial differentiation, factor added to five factors medium” value is “fewer”; the “arterial endothelial cell differentiation (EFNB2-tdTomato high/EPHB4-EGFP low cells), factor added” value is on record as “inhibited arterial differentiation”; the “arterial endothelial differentiation” value is recorded as “inhibit arterial endothelial differentiation”. Moreover, the “CD144+CXCR4+ and CD144+DLL4+ cells, factor added to five factors medium” value in assay [2] (100 ng/ml PDGF-BB) is recorded as “no reduction”.

B2: WNT3A: recombinant protein, Wnt signaling factor added to medium (protein, UniProt P56704 19-352, looked up)
Protein Wnt-3a: SYPIWWSLAVGPQYSSLGSQPILCASIPGLVPKQLRFCRNYVEIMPSVAEGIKIGIQECQHQFRGRRWNCTTVHDSLAIFGPVLDKATRESAFVHAIASAGVAFAVTRSCAEGTAAICGCSSRHQGSPGKGWKWGGCSEDIEFGGMVSREFADARENRPDARSAMNRHNNEAGRQAIASHMHLKCKCHGLSGSCEVKTCWWSQPDFRAIGDFLKDKYDSASEMVVEKHRESRGWVETLRPRYTYFKVPTERDLVYYEASPNFCEPNPETGSFGTRDRTCNVSSHGIDGCDLLCCGRGHNARAERRREKCRCVFHWCCYVSCQECTRVYDVHTCK
With B2, in assay [1], the “EFNB2-tdTomato high/EPHB4-EGFP low cells / arterial differentiation, factor added to five factors medium” value is “did not further increase arterial differentiation”; the “arterial specification (EFNB2-tdTomato and EPHB4-EGFP expression), factor added singly” value is “promoted increased arterial specification; also recorded: promoted arterial differentiation”.
